Data on two compounds can be found in patent publication US12263277B2, “Uniaxially-aligned nanofiber scaffolds and methods for producing and using same” (Oridivus LLC, priority 2019, dated 2025).

Molecules are shown by their SMILES. Entries after “also recorded” stand apart in the source; their conditions may differ.

For series [1], the system named is S1PRs. Conditions: all of the S1PRs; cited from earlier work.
In series [2] the test system is oronasal fistula (ONF) in the hard palate. The experiment in a line: Murine oronasal fistula (ONF) model, wound healing after scaffold implantation. In kind it is in vivo, mice. An excerpt: To understand the wound healing characteristics of the oral mucosa, the present disclosure provides an ONF model utilizing thermal injury for creating the ONF. In at least one embodiment, the ONF model permits study of the cellular and inflammatory infiltration to the wound site during the healing process. An exemplary analysis of FTY720 effects on ONF healing in the model includes, but is not limited to: 1) forming an ONF in each of a plurality of samples (e.g., mice); 2) dividing the mice into 3 groups, a no implant group, a group where blank nanofiber scaffolds are implanted, and a group where uniaxially-aligned nanofiber scaffolds with FTY720 are implanted; and 3) evaluating ONF healing results at predetermined time points (e.g., day 3, day 5, day 7, etc.).
To produce a Murine ONF model, 12 week old C57/b6 mice are obtained (for example from Jackson Laboratories) and anesthetized using intraperitoneal ketamine. According to one embodiment, the oral cavity is accessed using a retractor while the mice are spontaneously breathing. […] The time points include 0, 3, 5, and 7 days and healing of the ONF is assessed using histomorphometry while functional outcomes are measured evaluating for poor oral intake measured by body weight loss, dehydration (serum sodium using an ELIZA assay), and eventual death (Kaplan Meir curve).
After staining the slides, Hamamatsu NanoZoomer 2.0 HT processor was used to scan slides and they were then analyzed in Hamamatsu NDP.view2 Viewing Software. […]
To determine if a targeted auto-therapy induction of pro-regenerative monocytes and macrophages would lead to improved ONF healing, the delivery of FTY-720, a sphingosine analog that increases pro-regenerative monocytes and macrophages was tested via a nanofiber scaffold. […] With reference to FIGS. 13A-D, to examine the effects of the FTY-720 on the host inflammatory response, quantitative polymerase chain reaction (PCR) on the mucosal tissue surrounding the injury was performed and determined that IL-1 was decreased in the presence of FTY-720 whereas IL-6 and IL-10 were increased.

Series [3] has as its system palatine and surrounding hard palate bones. The experiment in a line: μCT evaluation of hard palate bones after ONF creation. In kind it is in vivo, mice. Conditions: following ONF creation. The protocol:
According to one embodiment, similar to humans, the critical wound healing time point is immediately following hard palate injury (or surgery) and fistula healing is unlikely after this critical time period. To assess the critical wound healing time, in at least one embodiment, ONFs are created in Murine models and standard histomorphologic evaluation of the mice following injury at day 0, 3, 5, 7, and 14 days is performed. According to one embodiment, the specimens are assessed using H+E staining of coronal sections in […] (10 male and 10 female) each to evaluate: the width of the ONF, the presence or absence of inflammatory infiltrate at the wound edges, the formation of a basement membrane in the healing areas (using type IV collagen and laminin staining). In at least one embodiment, the exposure of the maxillary and palatine bones as well as the surrounding maxillary structures are evaluated using micro-computed tomography (μCT) imaging.
According to one embodiment, ONF area width is measured at each of the time points and compared to controls. […] In various embodiments, to measure the proliferative and apoptosis response following oral injury, proliferation and apoptosis are assessed. […]

In series [4] the test system is IL-1. Kind of series: Quantitative PCR of hard palate mucosa around the injury, IL-1. Particulars: vs blank scaffold. In kind it is in vivo, mice. The source says:
(§1) FTY720 is a sphingosine-1-phosphate receptor analogue that is linked to LY6C^lo (anti-inflammatory) monocytes and M2 (Pro-regenerative) macrophages attraction. According to one embodiment, for analysis of lymphocyte populations, cells are stained for flow cytometry with one or more of the following antibodies: Zombie NIR™ Fixable Viability Kit (Biolegend), PE anti-mouse MERTK (Mer) Antibody (Biolegend), Brilliant Violet 711™ anti-mouse CD64 (FcγRI) Antibody (Biolegend), Brilliant Violet 510™ anti-mouse Ly-6C Antibody (Biolegend), FITC anti-mouse CD206 (MMR) Antibody (Biolegend), Brilliant Violet 421™ anti-mouse/human CD11b Antibody (Biolegend). […]
(§2) According to one embodiment, during oral cavity wound healing following injury, there is predominantly a pro-inflammatory lymphocytic infiltrate. […] According to one embodiment, the IL assessment is performed in samples with and without scaffold placement, and includes using quantitative PCR of hard palate mucosa at day 3, 5, and 7 and comparing results to controls. In at least one embodiment, serum is collected and evaluated for levels of IL1, IL6, IL10 and VEGF using ELIZA to determine if there are systemic alterations in inflammatory and vasculogenic gene regulation and compared to uninjured controls. […]

For series [5], the system named is M2 macrophages. Kind of series: Flow cytometry of hard palate mucosa in ONF model, macrophages. In kind it is in vivo, mice.
Description: as §1, with “(Biolegend). In various embodiments, to detect and sort for anti-inflammatory LY6C^lo monocytes and M2 Macrophages, real-time polymerase chain reaction (PCR) analysis is performed with iQ SYBR green supermix (Bio-Rad, 1708882) in a Bio-Rad iCycler for 40 cycles to assess the expression of inflammatory IL-1, IL-4 and IL-6 and anti-inflammatory IL-10 and transcription factor Sox2, which is related to keratinocyte migration and proliferation.” for “(Biolegend).”
In various embodiments, flow cytometry of inflammatory cells is performed to characterize monocyte and macrophage phenotypes. […] In various embodiments, cells are stained with cell phenotyping antibodies in a 1:1 volume ratio of 3% FBS and Brilliant Stain Buffer (BD Biosciences) according to standard procedures and analyzed on a FACS AriaIIIu flow cytometer (BD Biosciences). […] According to one embodiment, 30 μL of Accucheck Counting Beads (Invitrogen) are added per sample for absolute quantification of cell populations.
(§3) For analysis of lymphocyte populations, oral mucosal tissues were harvested and digested in 1 mg/ml collagenase I (Sigma) for 45 minutes at 37 degrees Celsius. […] Cells were then stained with cell phenotyping antibodies in a 1:1 volume ratio of 3% FBS and Brilliant Stain Buffer (BD Biosciences) according to standard procedures and analyzed on a FACS AriaIIIu flow cytometer (BD Biosciences). […]
A general note: In flow cytometry, cells or beads pass a laser one at a time.

The test system of series [6] is LY6C^lo monocytes. Kind of series: Flow cytometry of hard palate mucosa in ONF model, monocytes. In kind it is in vivo, mice.
Description: FTY720 is a sphingosine-1-phosphate receptor analogue that is linked to LY6C^lo (anti-inflammatory) monocytes and M2 (Pro-regenerative) macrophages attraction. According to one embodiment, for analysis of lymphocyte populations, cells are stained for flow cytometry with one or more of the following antibodies: Zombie NIR™ Fixable Viability Kit (Biolegend), PE anti-mouse MERTK (Mer) Antibody (Biolegend), Brilliant Violet 711™ anti-mouse CD64 (FcγRI) Antibody (Biolegend), Brilliant Violet 510™ anti-mouse Ly-6C Antibody (Biolegend), FITC anti-mouse CD206 (MMR) Antibody (Biolegend), Brilliant Violet 421™ anti-mouse/human CD11b Antibody (Biolegend). In various embodiments, to detect and sort for anti-inflammatory LY6C^lo monocytes and M2 Macrophages, real-time polymerase chain reaction (PCR) analysis is performed with iQ SYBR green supermix (Bio-Rad, 1708882) in a Bio-Rad iCycler for 40 cycles to assess the expression of inflammatory IL-1, IL-4 and IL-6 and anti-inflammatory IL-10 and transcription factor Sox2, which is related to keratinocyte migration and proliferation. In one or more embodiments, slides are stained for H&E and Phospho-histone 3 to assess keratinocytes undergoing mitosis.
In various embodiments, flow cytometry of inflammatory cells is performed to characterize monocyte and macrophage phenotypes. In one or more embodiments, for analysis of lymphocyte populations, hard palate mucosa is harvested and digested in 1 mg/ml collagenase I (Sigma) for 45 minutes at 37 degrees Celsius. In at least one embodiment, the digested mucosa is filtered through a cell strainer to obtain a single cell suspension. According to one embodiment, the single-cell suspensions are stained for live cells using either Zombie Green or Zombie NIR (Biolegend) dyes in cell-culture grade PBS per manufacturer instructions. In various embodiments, cells are stained with cell phenotyping antibodies in a 1:1 volume ratio of 3% FBS and Brilliant Stain Buffer (BD Biosciences) according to standard procedures and analyzed on a FACS AriaIIIu flow cytometer (BD Biosciences). […] According to one embodiment, 30 μL of Accucheck Counting Beads (Invitrogen) are added per sample for absolute quantification of cell populations.
as §3

Series [7] has as its system IL-6. Kind of series: Quantitative PCR of hard palate mucosa around the injury, IL-6. In kind it is in vivo, mice. Particulars: vs blank scaffold.
Description: as §1, §2

Series [8] is described as follows: In vitro release of FTY720 from controlled-release polymers. In kind it is physicochemical. Particulars: acid-capped L-A and methyl-ester capped H-ME polymers, incubation in vitro. The source says: In one or more embodiments, the S1PR agonist FTY720 is differentially released from polymers for controlled release (“acid-capped” L-A and “methyl-ester capped” H-ME polymers). […] According to one embodiment, an immunoregenerative approach is executed to control how M1 to M2 are spatially and temporally regulated by recruitment of anti-inflammatory monocytes (AM). In at least one embodiment, the immunoregenerative approach includes determining how localized administration of FTY720 is compartmentalized in vivo. In one or more embodiments, the phosphorylated form of the drug FTY720-P is primarily responsible for receptor mediated signaling and has much lower threshold effective concentrations than FTY720 at all of the S1PRs. In at least one embodiment, similar to S1P, FTY720-P must be dephosphorylated by LPP3 to enter the cell. According to one embodiment, once inside the cell, FTY720 can be phosphorylated by sphingosine kinase 2 (SPHK2) and subsequently exported from the cell by Spns2. In various embodiments, the ability of FTY720 to be reversibly phosphorylated allows it to undergo multiple cycles of signaling in the tissue, contributing to a sustained gradient. According to one embodiment, the regulatory roles of local gradients of FTY720 and FTY720-P are differentiable.

Series [9] has as its system cutaneous wound. The experiment in a line: Cutaneous wound healing / dorsal skinfold window chamber model. In kind it is in vivo. The source says: In one example, FTY720 and FTY720-P are released from 1 mm diameter thin films in a cutaneous dorsal skinfold window chamber for 3 days to investigate the in vivo gradient produced by H-ME PLGA film release of S1P receptor targeting compounds.
Multiple approaches can be used to improve the recruitment of the pro-regenerative monocytes and macrophages to cutaneous wounds.

Series [10] relates to IL-10. The experiment in a line: Quantitative PCR of hard palate mucosa around the injury, IL-10. Conditions: vs blank scaffold. In kind it is in vivo, mice.
Description: as §1, §2

The mark [11] stands for this setting: cutaneous wound, local delivery.

Turning to `CCCCCCCCc1ccc(CC[C@](N)(CO)COP(=O)(O)O)cc1` [FTY720-P], in [1], the “threshold effective concentrations relative to FTY720” value is given as “much lower”.
Take `CCCCCCCCc1ccc(CCC(N)(CO)CO)cc1` [FTY720]: the ONF wound healing result is “wound contracture” in series [2] (day 5, vs blank scaffold) and “complete healing” in series [2] (day 7, vs blank scaffold). Moreover, the “ONF / oral cavity wound healing” value in [2] (no time point stated, vs blank scaffold) was “healing, including reepithelization; also recorded: improved wound healing; also recorded: greater injury healing and ONF prevention”. Also, the “μCT changes to the underlying bone” value in series [3] is “did not reveal any changes”. In addition, the IL-1 expression result in series [4] is recorded as “decreased”. Further, the “M2 Macrophages % of total cells” value in series [5] (day 3, flow cytometry, implanted scaffold, blank 1.4±0.2%) is on record as 3.7±0.5%. In series [5] (day 3, flow cytometry, implanted scaffold, blank 34.7±6.4%), the “M2 Macrophages % of Macrophages” value was 63.6±3.9%. Moreover, the “migration of M2 macrophages into a wound bed” value in series [5] (e.g. in the hard palate, no time point) is recorded as “increases the migration”; in series [9] (cutaneous wound context), “increases the migration”. Further, in [6] (day 3, flow cytometry, implanted scaffold, blank 12.7±5.7), the “LY6C^lo % of total CD11B+ cells” value was 22.5±5.6%. Besides, the “LY6Clo monocytes in wound bed” value in [6] (day 3, vs blank scaffolds) is recorded as “increased”. Moreover, the “LY6C^lo % of total cells” value in series [6] (day 3 post-ONF formation, flow cytometry, implanted scaffold, blank 3.7%±0.9) is on record as 5.7%±0.6. The “Ly6Clo monocytes in the wound bed” value in series [6] (during healing, no time point stated, vs blank scaffolds) is recorded as “increase”. Moreover, the IL-6 expression entry in series [7] is on record as “increased”. The “in vitro release profile” value in series [8] is “initial burst in the first hours of incubation in vitro, followed by a delay and a second phase of release between 3 and 5 days”. The cutaneous wound healing entry in series [9] (setting [11]) is listed as “improved wound healing”. In addition, in series [9] (setting [11]), the “recruitment of anti-inflammatory (AM, Ly6C^lo) monocytes” value is “increases the frequency; also recorded: selectively recruits non-classical Ly6C^lo monocytes; also recorded: significantly increases the proportion; also recorded: recruits AM monocytes”. Moreover, the vascularity result in series [9] (cutaneous wound, thin film release, 3 days) is on record as “increased vascularity”. Moreover, in [10], the IL-10 expression entry is given as “increased”.
